From PubChem BioAssay (NCI)
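Method: 48-hour compound exposure of cells in 96-well plates, five concentrations, linear interpolation of endpoints. TGI marks complete inhibition of growth.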

How the values were obtained:
Experiment in all cases: NCI tumour cell line growth inhibition, 48 h
MOLT-4 leukemia = tested on: MOLT-4 leukemia
KM12 colon = tested on: KM12 colon
HOP-62 NSCLC = tested on: HOP-62 NSCLC
XF 498 CNS = tested on: XF 498 CNS
SN12C renal = tested on: SN12C renal
U251 CNS = tested on: U251 CNS
HCT-15 colon = tested on: HCT-15 colon
HCT-116 colon = tested on: HCT-116 colon
SF-295 CNS = tested on: SF-295 CNS
A498 renal = tested on: A498 renal
RPMI-8226 leukemia = tested on: RPMI-8226 leukemia
SF-268 CNS = tested on: SF-268 CNS
LXFL 529 NSCLC = tested on: LXFL 529 NSCLC
NCI-H522 lung = tested on: NCI-H522 lung
LOX IMVI melanoma = tested on: LOX IMVI melanoma
UACC-62 melanoma = tested on: UACC-62 melanoma
SK-MEL-5 melanoma = tested on: SK-MEL-5 melanoma
CCRF-CEM leukemia = tested on: CCRF-CEM leukemia
HCC-2998 colon = tested on: HCC-2998 colon
SW-620 colon = tested on: SW-620 colon
HT29 colon = tested on: HT29 colon
SNB-19 CNS = tested on: SNB-19 CNS
OVCAR-5 ovarian = tested on: OVCAR-5 ovarian
DMS 273 small cell lung = tested on: DMS 273 small cell lung
COLO 205 colon = tested on: COLO 205 colon
HL-60(TB) leukemia = tested on: HL-60(TB) leukemia
KM20L2 colon = tested on: KM20L2 colon
NCI-H23 lung = tested on: NCI-H23 lung
TK-10 renal = tested on: TK-10 renal
NCI-H226 lung = tested on: NCI-H226 lung
SNB-75 CNS = tested on: SNB-75 CNS
A549 NSCLC = tested on: A549 NSCLC
CAKI-1 renal = tested on: CAKI-1 renal
OVCAR-3 ovarian = tested on: OVCAR-3 ovarian
SK-MEL-28 melanoma = tested on: SK-MEL-28 melanoma
SF-539 CNS = tested on: SF-539 CNS
NCI-H460 lung = tested on: NCI-H460 lung
RXF-631 renal = tested on: RXF-631 renal
DMS 114 small cell lung = tested on: DMS 114 small cell lung
DLD-1 colon = tested on: DLD-1 colon
OVCAR-4 ovarian = tested on: OVCAR-4 ovarian
HOP-92 NSCLC = tested on: HOP-92 NSCLC
OVCAR-8 ovarian = tested on: OVCAR-8 ovarian
M14 melanoma = tested on: M14 melanoma
SK-OV-3 ovarian = tested on: SK-OV-3 ovarian
ACHN renal = tested on: ACHN renal
HOP-18 NSCLC = tested on: HOP-18 NSCLC
EKVX NSCLC = tested on: EKVX NSCLC
K-562 leukemia = tested on: K-562 leukemia
M19-MEL melanoma = tested on: M19-MEL melanoma
IGROV1 ovarian = tested on: IGROV1 ovarian
UACC-257 melanoma = tested on: UACC-257 melanoma
MALME-3M melanoma = tested on: MALME-3M melanoma
786-0 renal = tested on: 786-0 renal
UO-31 renal = tested on: UO-31 renal
SK-MEL-2 melanoma = tested on: SK-MEL-2 melanoma

Measured: TGI

COC(=O)c1ccc(/C=C2\N=C(C)OC2=O)cc1
> 100 µM: MOLT-4 leukemia | KM12 colon | HOP-62 NSCLC | XF 498 CNS | SN12C renal | U251 CNS | HCT-15 colon | HCT-116 colon | SF-295 CNS | A498 renal | RPMI-8226 leukemia | SF-268 CNS | LXFL 529 NSCLC | NCI-H522 lung | LOX IMVI melanoma | UACC-62 melanoma | SK-MEL-5 melanoma | CCRF-CEM leukemia | HCC-2998 colon | SW-620 colon | HT29 colon | SNB-19 CNS | OVCAR-5 ovarian | DMS 273 small cell lung | COLO 205 colon | HL-60(TB) leukemia | KM20L2 colon | NCI-H23 lung | TK-10 renal | NCI-H226 lung | SNB-75 CNS | A549 NSCLC | CAKI-1 renal | OVCAR-3 ovarian | SK-MEL-28 melanoma | SF-539 CNS | NCI-H460 lung | RXF-631 renal | DMS 114 small cell lung | DLD-1 colon | OVCAR-4 ovarian | HOP-92 NSCLC | OVCAR-8 ovarian | M14 melanoma | SK-OV-3 ovarian | ACHN renal | HOP-18 NSCLC | EKVX NSCLC | K-562 leukemia | M19-MEL melanoma | IGROV1 ovarian

Cc1cccc(NC(=O)/C=C/c2ccc(N(CCC#N)CCC#N)cc2C)c1
> 100 µM: UACC-257 melanoma | MOLT-4 leukemia | KM12 colon | MALME-3M melanoma | HOP-62 NSCLC | XF 498 CNS | SN12C renal | U251 CNS | HCT-15 colon | HCT-116 colon | SF-295 CNS | 786-0 renal | A498 renal | RPMI-8226 leukemia | SF-268 CNS | LXFL 529 NSCLC | NCI-H522 lung | LOX IMVI melanoma | UACC-62 melanoma | SK-MEL-5 melanoma | CCRF-CEM leukemia | HCC-2998 colon | SW-620 colon | HT29 colon | SNB-19 CNS | OVCAR-5 ovarian | DMS 273 small cell lung | COLO 205 colon | HL-60(TB) leukemia | KM20L2 colon | NCI-H23 lung | TK-10 renal | NCI-H226 lung | SNB-75 CNS | A549 NSCLC | CAKI-1 renal | OVCAR-3 ovarian | SK-MEL-28 melanoma | UO-31 renal | SF-539 CNS | SK-MEL-2 melanoma | NCI-H460 lung | RXF-631 renal | DMS 114 small cell lung | DLD-1 colon | OVCAR-4 ovarian | HOP-92 NSCLC | OVCAR-8 ovarian | M14 melanoma | SK-OV-3 ovarian | ACHN renal | EKVX NSCLC | K-562 leukemia | M19-MEL melanoma | IGROV1 ovarian
